pIC50: −log10 of the molar value.

In one series the target is T1, CYP1A (Homo sapiens, UniProt P05177).
T1 construct: from tissue; host or cells: human liver microsomes
Nature of the series: Cytochrome P450 inhibition, CYP1A. Format: in vitro ADME. The settings on record: human liver microsomes, probe ethoxyresorufin. How it is done:
This provided a dose of 2 mg free base material/kg when Cytochrome p450 inhibition (5 isoform iC50 administered iv in a 5 mL/kg dosing volume. determination) mouse terminal ip pK study ADME-Tox Cytochrome P450 inhibition of Compound MC2884 was given ip at a dose of 2 mg/kg MC2884 using human liver microsomes as an estimation to a group of 24 normally fed male CD1 mice in a 10 mL/ of in vitro metabolism. kg injection volume. Terminal blood samples (> 230 μL) MC2884 (0.1 μM–25 μM) was incubated with were taken under CO2 from groups of 3 mice at each of 8 human liver microsomes and NADPH in the presence time-points post dose (0.083, 0.25, 0.5, 1, 2, 4, 8 and 24 h) of a cytochrome P450 isoform-specific probe substrate. and placed into heparinized tubes. Samples were placed on ice For the CYP2C9, CYP2C19, CYP2D6 and CYP3A4 for no longer than 30 min before centrifugation (10,000 rpm × specific reactions, the metabolites were monitored by 3 min). […]
Cyp2C19 inhibition (0.1 mg/mL) and NADPH (1 mM) in the presence of the probe substrate midazolam (2.5 μM) for 5 min at Six test compound samples at concentrations 37° C. […] For the CYP1A incubations, the reactions microsomes (0.5 mg/mL) and NADPH (1 mM) in the were terminated by methanol, and the formation of the presence of the probe substrate mephenytoin (25 μM) metabolite, resorufin, was monitored by fluorescence for 60 min at 37° C. […]
Background: Microsomes from liver hold many membrane-bound enzymes, among them those of drug oxidation.

For another series, the target named is CBP (Homo sapiens, UniProt Q92793). Nature of the series: HAT in vitro assay, 10-dose IC50, CBP. Format: biochemical. The settings on record: substrate Histone H3, 3 μM Acetyl-CoA; read-out: Compound IC50 CBP. How it is done:
(§1) For HAT in vitro assay, MC2884 activity was also tested in vitro and IC50 was calculated as indicated in the scheme. […] Reactions were carried out at 3 μM Acetyl-CoA. Empty cells indicate no inhibition or compound activity that could not be fit to an IC50 curve.

Another series has as its system NB4 cells. Nature of the series: NB4 leukemia xenograft, human CD45+ cells in bone marrow. Format: in vivo, mice. The settings on record: 1 mg/kg i.p., day 16. Here is the method: (§2) Xenograft studies using NB4 and U937-AML cells were performed in NOG SCID mice under specific pathogen–free conditions. Cells (0.2 × 10^6 in 100 µL) were injected intravenously (retro orbital vein). Injected mice were randomly assigned to receive intra-peritoneal MC2884 (1 mg/kg) or vehicle for two weeks (8 doses) (10 mice per group). All animal procedures were performed in accordance with protocols approved by the local Committee for Animal Experimentation and with the permission of the Italian Health Ministry (n° 626/2015). At 16 days after injection, mice were sacrificed and the femurs and spleens were collected. Bone marrow (BM) and spleen cells were analyzed by FACS. To avoid non-specific stain, cells were mixed with mouse IgG and incubated with indicated antibodies for 30’. The mixture was depleted of erythrocytes and fixed (BD Pharmingen). […] Tumor growth was monitored by weekly bioluminescence imaging (BLI) acquisitions using an IVIS 3D Imaging System (Caliper Alameda, USA). To quantify bioluminescence, the integrated fluxes of photons (photons per s) within each area of interest were determined using the Living Images Software Package 3.2 (Caliper, Alameda, USA). […] Efficacy of drug treatment was assessed as inhibition of BLI emission comparing those MC2884 treated mice group and vehicle groups.

The target in another series is KAT5 (Homo sapiens, UniProt Q92993). Nature of the series: HAT in vitro assay, 10-dose IC50, KAT5. Format: biochemical. The following applies: substrate Histone H2A, 3 μM Acetyl-CoA; read-out: Compound IC50 KAT5. How it is done: as §1
KAT5, sequence (Q92993 whole entry): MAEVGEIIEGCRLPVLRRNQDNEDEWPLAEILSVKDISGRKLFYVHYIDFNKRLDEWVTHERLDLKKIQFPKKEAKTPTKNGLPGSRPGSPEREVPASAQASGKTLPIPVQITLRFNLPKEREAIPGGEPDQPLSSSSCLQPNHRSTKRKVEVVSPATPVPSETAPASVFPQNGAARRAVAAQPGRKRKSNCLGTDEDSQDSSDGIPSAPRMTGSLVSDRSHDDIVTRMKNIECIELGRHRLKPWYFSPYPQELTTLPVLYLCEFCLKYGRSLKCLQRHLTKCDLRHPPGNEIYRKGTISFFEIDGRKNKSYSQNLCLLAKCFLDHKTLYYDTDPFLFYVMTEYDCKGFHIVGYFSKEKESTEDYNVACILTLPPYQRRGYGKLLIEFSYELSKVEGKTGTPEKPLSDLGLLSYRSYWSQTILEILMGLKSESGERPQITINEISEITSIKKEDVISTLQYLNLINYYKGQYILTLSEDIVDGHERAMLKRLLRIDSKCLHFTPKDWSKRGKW
The nature of series [1]: Body weight of leukemia-xenografted mice. The series is classed as in vivo. The following applies: 1 mg/kg i.p. three times weekly, 16 days post-xenograft; control mice 94%. Here is the method: as §2
The test system of the next series is U937 cells. Briefly: U937 leukemia xenograft, human CD45+ cells in bone marrow. Format: in vivo, mice. The following applies: 1 mg/kg i.p., day 16. How it is done: as §2

T1 sequence (P05177 2-516 limits assumed): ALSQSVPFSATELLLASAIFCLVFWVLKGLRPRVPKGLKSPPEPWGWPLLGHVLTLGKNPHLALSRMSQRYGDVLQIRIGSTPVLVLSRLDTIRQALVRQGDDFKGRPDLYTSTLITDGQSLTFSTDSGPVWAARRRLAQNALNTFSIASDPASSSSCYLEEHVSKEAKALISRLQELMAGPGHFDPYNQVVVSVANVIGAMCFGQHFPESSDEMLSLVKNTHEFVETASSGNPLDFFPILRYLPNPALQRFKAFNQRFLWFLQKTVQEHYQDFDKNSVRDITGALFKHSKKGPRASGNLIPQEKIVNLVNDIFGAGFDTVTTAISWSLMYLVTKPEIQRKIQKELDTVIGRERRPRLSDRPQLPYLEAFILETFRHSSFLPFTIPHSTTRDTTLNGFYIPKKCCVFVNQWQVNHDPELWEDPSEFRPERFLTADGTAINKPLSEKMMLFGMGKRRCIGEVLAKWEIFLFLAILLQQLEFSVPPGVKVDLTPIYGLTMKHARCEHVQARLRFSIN
CBP, sequence (Q92793 whole entry): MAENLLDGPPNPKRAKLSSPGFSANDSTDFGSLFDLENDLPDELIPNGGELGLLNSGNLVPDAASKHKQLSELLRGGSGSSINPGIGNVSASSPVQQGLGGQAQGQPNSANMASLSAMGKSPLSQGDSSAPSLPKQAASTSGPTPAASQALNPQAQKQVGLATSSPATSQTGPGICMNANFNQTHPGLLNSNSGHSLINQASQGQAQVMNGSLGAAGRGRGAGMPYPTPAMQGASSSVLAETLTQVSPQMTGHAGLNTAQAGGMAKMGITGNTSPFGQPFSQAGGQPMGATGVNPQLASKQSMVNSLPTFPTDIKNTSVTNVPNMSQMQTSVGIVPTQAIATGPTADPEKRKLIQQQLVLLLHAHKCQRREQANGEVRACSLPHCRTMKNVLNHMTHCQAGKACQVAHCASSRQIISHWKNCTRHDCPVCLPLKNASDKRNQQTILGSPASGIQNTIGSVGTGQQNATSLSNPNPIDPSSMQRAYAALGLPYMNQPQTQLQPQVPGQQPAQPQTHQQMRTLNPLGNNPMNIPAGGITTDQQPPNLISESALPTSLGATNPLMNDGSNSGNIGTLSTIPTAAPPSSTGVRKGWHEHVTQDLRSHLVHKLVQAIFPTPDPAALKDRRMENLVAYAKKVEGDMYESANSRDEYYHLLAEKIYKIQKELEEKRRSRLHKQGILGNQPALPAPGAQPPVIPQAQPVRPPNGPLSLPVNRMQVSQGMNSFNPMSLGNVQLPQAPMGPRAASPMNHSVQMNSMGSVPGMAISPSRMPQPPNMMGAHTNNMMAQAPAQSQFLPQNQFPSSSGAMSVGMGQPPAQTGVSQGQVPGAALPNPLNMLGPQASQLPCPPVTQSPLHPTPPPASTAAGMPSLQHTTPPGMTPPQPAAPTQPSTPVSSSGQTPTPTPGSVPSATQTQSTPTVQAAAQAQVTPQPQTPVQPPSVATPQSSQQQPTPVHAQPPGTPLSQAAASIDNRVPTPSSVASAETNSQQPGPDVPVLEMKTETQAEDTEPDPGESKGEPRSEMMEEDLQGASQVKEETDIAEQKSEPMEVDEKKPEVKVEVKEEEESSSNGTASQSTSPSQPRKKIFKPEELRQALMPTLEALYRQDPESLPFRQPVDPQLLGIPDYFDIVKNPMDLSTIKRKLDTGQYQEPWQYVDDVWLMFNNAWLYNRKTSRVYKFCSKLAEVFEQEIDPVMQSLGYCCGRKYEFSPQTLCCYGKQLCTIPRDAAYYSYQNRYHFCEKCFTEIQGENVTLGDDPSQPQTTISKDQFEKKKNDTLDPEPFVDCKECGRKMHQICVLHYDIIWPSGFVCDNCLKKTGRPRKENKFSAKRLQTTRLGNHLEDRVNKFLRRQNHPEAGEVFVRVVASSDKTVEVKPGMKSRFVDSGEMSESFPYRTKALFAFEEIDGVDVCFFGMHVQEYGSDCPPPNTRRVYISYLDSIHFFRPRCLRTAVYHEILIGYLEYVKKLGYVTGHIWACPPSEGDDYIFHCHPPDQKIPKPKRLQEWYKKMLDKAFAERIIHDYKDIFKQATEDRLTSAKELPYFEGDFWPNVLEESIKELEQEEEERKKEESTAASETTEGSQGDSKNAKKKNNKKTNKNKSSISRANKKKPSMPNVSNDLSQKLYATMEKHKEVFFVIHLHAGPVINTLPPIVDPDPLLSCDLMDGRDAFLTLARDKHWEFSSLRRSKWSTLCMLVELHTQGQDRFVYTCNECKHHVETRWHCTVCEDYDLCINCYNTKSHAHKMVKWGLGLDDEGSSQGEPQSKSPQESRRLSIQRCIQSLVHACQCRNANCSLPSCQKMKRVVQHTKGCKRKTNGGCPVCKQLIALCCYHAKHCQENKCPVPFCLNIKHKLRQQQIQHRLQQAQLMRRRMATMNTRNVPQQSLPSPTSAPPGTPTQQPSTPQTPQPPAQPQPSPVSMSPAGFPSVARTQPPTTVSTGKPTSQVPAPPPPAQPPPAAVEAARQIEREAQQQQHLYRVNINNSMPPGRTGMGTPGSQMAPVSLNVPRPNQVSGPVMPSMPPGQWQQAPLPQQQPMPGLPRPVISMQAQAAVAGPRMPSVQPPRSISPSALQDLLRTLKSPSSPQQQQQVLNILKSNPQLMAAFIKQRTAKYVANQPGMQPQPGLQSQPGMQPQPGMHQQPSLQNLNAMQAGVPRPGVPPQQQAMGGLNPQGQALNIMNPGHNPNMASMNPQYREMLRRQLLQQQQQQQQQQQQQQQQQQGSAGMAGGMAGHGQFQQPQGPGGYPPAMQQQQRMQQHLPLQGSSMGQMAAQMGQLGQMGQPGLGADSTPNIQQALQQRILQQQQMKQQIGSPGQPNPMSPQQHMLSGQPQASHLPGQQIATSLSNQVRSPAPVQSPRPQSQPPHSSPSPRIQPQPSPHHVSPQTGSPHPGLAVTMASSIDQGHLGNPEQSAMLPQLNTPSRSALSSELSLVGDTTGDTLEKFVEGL

In the case of `O=C1/C(=C/c2cccc(Br)c2)CN(Cc2ccccc2)C/C1=C\c1cccc(Br)c1` [MC2884], the results for the pIC50 against CYP1A, at CBP and at KAT5 were < 4.60, 5.49 and 6.08, respectively. Further, the results for the “human CD45+ cells in the bone marrow reduced to” value with NB4 cells and in the series on U937 cells were 17% and 24%, respectively. Moreover, the “normalized weight, % of initial weight” value in series [1] is on record as 90%.
